Test results taken from ChEMBL document CHEMBL1201862, “PubChem BioAssay data set” (2004).
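Five concentrations, 48 hours, 96-well plates. GI50 is the concentration that inhibits growth by half.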 Activity calls are given as the source filed them. Rule as the data show it: active = GI50 up to about 1.1 µM and inactive = higher.

What was measured:
Test in all cases: DTP human tumour cell line panel, 48 h
[1] = tested on: RXF 393
[2] = tested on: NCI-H23
[3] = tested on: NCI-H226
[4] = tested on: MCF7
[5] = tested on: HCT-116
[6] = tested on: HCT-15
[7] = tested on: SF-295
[8] = tested on: SF-268
[9] = tested on: SW-620
[10] = tested on: EKVX
[11] = tested on: HOP-62
[12] = tested on: SK-OV-3
[13] = tested on: RPMI-8226
[14] = tested on: Malme-3M
[15] = tested on: SNB-19
[16] = tested on: HL-60
[17] = tested on: MDA-MB-435
[18] = tested on: 786-0
[19] = tested on: DU-145

| Compound | GI50 [1] | GI50 [2] | GI50 [3] | GI50 [4] | GI50 [5] | GI50 [6] [µM] | GI50 [7] | GI50 [8] | GI50 [9] | GI50 [10] | GI50 [11] | GI50 [12] | GI50 [13] | GI50 [14] | GI50 [15] | GI50 [16] | GI50 [17] | GI50 [18] | GI50 [19] |
| --- | --- | --- | --- | --- | --- | --- | --- | --- | --- | --- | --- | --- | --- | --- | --- | --- | --- | --- | --- |
| CC(=O)Oc1cc2c(cc1OC(C)=O)OCC(c1ccccc1)C2 (stereo not drawn) | 14.4 µM (inactive) | 32.2 µM (inactive) | 22.2 µM (inactive) | 32.5 µM (inactive) | 27.6 µM (inactive) | 13 | 16.4 µM (inactive) | 14.7 µM (inactive) | 6.5 µM (inactive) | 28.3 µM (inactive) | 19.1 µM (inactive) | 40.7 µM (inactive) | 8.39 µM (inactive) | 16.1 µM (inactive) | 15 µM (inactive) | 3.5 µM (inactive) | – | – | – |
| Cc1nnc(Nc2ccccc2)o1 | > 100 µM (inactive) | > 100 µM (inactive) | > 100 µM (inactive) | > 100 µM (inactive) | > 100 µM (inactive) | > 100 | > 100 µM (inactive) | > 100 µM (inactive) | > 100 µM (inactive) | > 100 µM (inactive) | – | > 100 µM (inactive) | > 100 µM (inactive) | > 100 µM (inactive) | > 100 µM (inactive) | > 100 µM (inactive) | > 100 µM (inactive) | > 100 µM (inactive) | > 100 µM (inactive) |
| CCc1c(CNC2=NCCN2)c(CC)c(CNC2=NCCN2)c(CC)c1CNC1=NCCN1 | > 100 µM (inactive) | > 100 µM (inactive) | > 100 µM (inactive) | > 100 µM (inactive) | > 100 µM (inactive) | > 100 | > 100 µM (inactive) | > 100 µM (inactive) | > 100 µM (inactive) | > 100 µM (inactive) | > 100 µM (inactive) | > 100 µM (inactive) | > 100 µM (inactive) | > 100 µM (inactive) | > 100 µM (inactive) | – | > 100 µM (inactive) | > 100 µM (inactive) | > 100 µM (inactive) |
| O=C(Cn1c2c(c3ccccc31)CCCC2)NC1CCCCC1 | – | > 100 µM (inactive) | – | > 100 µM (inactive) | > 100 µM (inactive) | > 100 | 51.3 µM (inactive) | 77.3 µM (inactive) | > 100 µM (inactive) | > 100 µM (inactive) | 81.8 µM (inactive) | 45.9 µM (inactive) | > 100 µM (inactive) | > 100 µM (inactive) | > 100 µM (inactive) | 0.405 µM (active) | > 100 µM (inactive) | 69.8 µM (inactive) | – |
| CC1(C)OP(=O)(c2ccccc2)C=C1Sc1ccc([N+](=O)[O-])cc1[N+](=O)[O-] (stereo not drawn) | – | 77.6 µM (inactive) | > 100 µM (inactive) | 41.5 µM (inactive) | 36.6 µM (inactive) | 65.5 | 95.9 µM (inactive) | 52.1 µM (inactive) | 65.5 µM (inactive) | > 100 µM (inactive) | > 100 µM (inactive) | > 100 µM (inactive) | – | 78.3 µM (inactive) | > 100 µM (inactive) | 15.9 µM (inactive) | 70 µM (inactive) | 38.6 µM (inactive) | 74.6 µM (inactive) |
| CC(=O)N1CCc2c([nH]c3ccc(Br)cc23)C1c1ccccc1 (stereo not drawn) | > 10 µM (inactive) | – | > 10 µM (inactive) | 2.75 µM (inactive) | 1.11 µM (active) | 0.194 | 2.4 µM (inactive) | > 9.02 µM (inactive) | 2.62 µM (inactive) | > 10 µM (inactive) | 7.55 µM (inactive) | > 7.71 µM (inactive) | 2.29 µM (inactive) | > 10 µM (inactive) | > 10 µM (inactive) | 2.55 µM (inactive) | 2.69 µM (inactive) | 3.28 µM (inactive) | > 10 µM (inactive) |
